Reference: PMC9854774, “Monocarbonyl Curcumin Analogues as Potent Inhibitors against Human Glutathione Transferase P1-1” (Antioxidants, 2022)
Entries after “also recorded” stand apart in the source; their conditions may differ. Read-outs that look alike come from different tables or passages of the source.

Columns and labels:
[1] = biological target: T1, hGSTP1-1 (Homo sapiens, UniProt P09211); test: hGSTP1-1 enzyme activity/inhibition assay (CDNB-GSH conjugation, 340 nm); assay type: biochemical; conditions: recombinant hGSTP1-1, 25 °C; for Enzyme Inhibition (%) / inhibition at 100 µM: compound at final concentration of 100 μM; for IC50: CDNB/GSH assay, read-out: IC50 against hGSTP1-1
T1 construct: made in house; host or cells: E. coli BL21 (DE3)
T1 sequence (P09211 2-210 limits assumed): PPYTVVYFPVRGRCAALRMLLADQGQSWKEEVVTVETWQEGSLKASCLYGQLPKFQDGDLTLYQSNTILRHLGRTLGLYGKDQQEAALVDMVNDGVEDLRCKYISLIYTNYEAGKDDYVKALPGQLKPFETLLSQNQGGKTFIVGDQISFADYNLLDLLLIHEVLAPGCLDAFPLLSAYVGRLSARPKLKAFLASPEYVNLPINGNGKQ
Protocol: Determination of hGSTP1-1 activity was performed by monitoring the formation of the conjugate between CDNB and GSH and measuring the absorption at λ = 340 nm (ε = 9600 L·mol^−1·cm^−1) at 25 °C for 120 s, as described previously. One unit of enzyme activity is defined as the amount of enzyme that produces 1.0 μmol of product per minute under the assay conditions. Curcuminoids and monocarbonyl curcumin analogues were dissolved in DMSO (100 μΜ) and added to the assay mixture (the volume of DMSO was maintained at 2% v/v final concentration). The mixture was incubated at 25 °C for 1 min, prior to adding the enzyme sample. Initial velocities were determined in triplicates and were corrected for spontaneous reaction rates, when necessary. […] The IC50 values were determined from a graph of the remaining GST activity (%) against inhibitor concentration.
(§1) The computer program GraphPad Prism version 8 (GraphPad Prism Software, Inc., San Diego, CA, USA) was used for producing kinetic graphs and determining apparent kinetic parameters/constants and IC50 values.

[2] = biological target: T1, hGSTP1-1; design: method as in PMID 9463521, PMID 17046132; conditions: pH 7.4; presumably covalent binding to Cys-47; cited from earlier work
[3] = biological target: T1, hGSTP1-1; test: Circular dichroism study of enzyme conformation; conditions: 5 μΜ inhibitor; 0.1 mg/mL hGSTP1-1, 2.5 mM GSH (± 1 mM CDNB), pH 6.5
Protocol: CD studies were performed using a JASCO J-715 spectropolarimeter (Jasco Co., Tokyo, Japan) equipped with Peltier temperature controller (Jasco Co., Tokyo, Japan), at 25 °C and a wavelength range of 190–400 nm using a 1-mm-path length quartz cuvette. Each CD spectrum is the average of three scans at 200 nm·min^−1 and a resolution of 0.5 nm. The CD solutions were prepared by mixing the appropriate volumes of stock solutions to give final concentrations of 0.1 mg/mL of hGSTP1-1, 2.5 mM of GSH, 1 mM of CDNB, and 5 μΜ of inhibitor in potassium phosphate buffer (100 mM, pH 6.5) at room temperature, while CD spectra of plain solutions of GSH, CDNB, DM96, and DM62 at the same concentrations were also run as controls (see supporting information). The analysis of the CD data was performed using the OriginPro 9 program and the content of the secondary structure was calculated through the CDNN Circular Dichroism Spectroscopy Deconvolution software.

[4] = system: DU-145 cells; test: In vitro cytotoxicity, MTT colorimetric assay; assay type: cell-based, human; conditions: read-out: IC50 against DU-145
Protocol: DU-145 cells were grown in Dulbecco’s modified eagle medium (DMEM) growth medium of pH 7.4, supplemented with 10% fetal bovine serum (FBS), penicillin (100 U·mL^−1), glutamine (2 mM), and streptomycin (100 μg·mL^−1). Cell cultures were maintained in flasks and were grown at 37 °C in a humidified atmosphere of 5% CO2 in air. […] The subcultivation ratio was 1:2 to 1:5.
Cells were seeded in 96-well plates (8 × 10^3 cells/well in 100 μL culture medium) and grown overnight at 37 °C in a 5% CO2 incubator. Exponentially growing cells were incubated for 48 h with various concentrations ranging between 10^−3–10^−[…] of each derivative, and the final DMSO concentration never exceeded 0.2%. The medium was then removed and replaced with 100 μL of MTT solution (1 mg·mL^−1). After a 4 h incubation, the solution was aspirated, formazan crystals were solubilized in 100 μL of DMSO, and absorbance was recorded at 540 nm on a Tecan well plate reader. The results were expressed as % cell viability = (mean optical density (OD) of treated cells/mean OD of untreated cells) × 100.

[5] = biological target: T1, hGSTP1-1; test: Kinetic inhibition analysis of hGSTP1-1 (Lineweaver-Burk); assay type: biochemical; conditions: for Experimental Binding Free Energy ΔGexp: calculated from Ki; for Experimental Binding Free Energy ΔG′exp: calculated from Ki΄; for Type of Inhibition: pH 6.5, 25 °C; for Inhibition Constant Ki΄: binding to enzyme-substrate complex; for Ki: binding to free enzyme, read-out: Inhibition Constant Ki
Protocol: as §1
Initial velocities (25 °C) for the hGSTP1-1-catalyzed reaction with CDNB as a variable substrate were determined in reaction mixtures (1 mL total volume) containing potassium phosphate buffer (100 mM, pH 6.5), 2.5 mM GSH, and different concentrations of CDNB (typically 14–1000 μM) in the absence and presence of inhibitors (DM96, DM151, DM109, DMC, 0–50 μM). Initial velocities for the hGSTP1-1-catalyzed reaction with GSH as a variable substrate were determined in reaction mixtures (1 mL total volume) (25 °C) containing potassium phosphate buffer (100 mM, pH 6.5), 1 mM CDNB, and different concentrations of GSH (typically 37.5–3750 μΜ) in the absence and presence of inhibitors (DM96, DM151, DM109, Curcumin II, 0–50 μM).

[6] = system: native GST extracted from DU-145 cells; test: Inhibition of native GST activity in DU-145 cell lysate; assay type: biochemical, human; conditions: inhibitor at its IC50 for recombinant hGSTP1-1, 25 °C
Protocol: DU-145 cells were trypsinized, transferred to a Falcon tube, and centrifuged at 1500× g for 10 min. Subsequently, DMEM was removed and the cell pellet was resuspended in 1 mL of potassium phosphate buffer. The cells were lysed by sonication, the suspension was centrifuged at 13,000× g for 5 min, and the supernatant was collected.

[7] = Homo sapiens, DU-145, 48 h, MTT, 48 h incubation
[8] = variable substrate CDNB, 2.5 mM GSH
[9] = variable substrate GSH, 1 mM CDNB

Row | Molecule | inhibition at 100 µM [1] [%] | IC50 [1] [µM] | Enzyme Inhibition (%) ([1]; 100 µM) | Experimental Binding Free Energy ΔGexp ([5]; variable substrate CDNB) | Experimental Binding Free Energy ΔGexp ([5]; variable substrate GSH) | Ki ([5]; variable substrate CDNB) [µM] | Ki ([5]; variable substrate GSH) [µM] | further results
1 | 2,6-bis(3,4-dihydroxybenzylidene)cyclohexanone [DM57] | – | – | – | – | – | – | – | Enzyme Inhibition (%) [1]: 16.75 ± 3.61%
2 | 2,6-dibenzylidenecyclohexanone [DM15] | – | – | – | – | – | – | – | Enzyme Inhibition (%) [1]: 66.23 ± 2.57%
3 | COc1cc(/C=C/C(=O)CC(=O)/C=C/c2ccc(O)c(OC)c2)ccc1O [Curcumin] | – | – | – | – | – | – | – | Mode of inhibition of hGSTP1-1 [2]: irreversible inhibitor
4 | COc1ccc(/C=C2\CCC/C(=C\c3ccc(OC)cc3)C2=O)cc1 [DM46, 2,6-bid(4-methoxybenzylidene)cyclohexanone] | 8.5 ± 2.13 | – | – | – | – | – | – | –
5 | O=C1/C(=C/c2ccc(F)cc2)CCC/C1=C\c1ccc(F)cc1 [DM62, (2E,6E)-2,6-bis(4-fluorobenzylidene)cyclohexanone] | 8.4 ± 0.36 | – | – | – | – | – | – | Effect on CD spectrum / conformation of the enzyme [3]: does not cause the conformational changes observed with DM96
6 | COc1ccc(/C=C/C(=O)/C=C/c2ccc(OC)c(OC)c2)cc1OC [DM95, (1E,4E)-1,5-bis(3,4-dimethoxyphenyl)penta-1,4-dien-3-one] | 44.2 ± 3.06 | – | – | – | – | – | – | –
7 | O=C(C=Cc1ccc(O)cc1)C=Cc1ccc(O)cc1 [DM96, 1,5-bis(4-hydroxyphenyl)penta-1,4-dien-3-one] | ~95 | 5.45 ± 1.08 | 86.99 ± 1.88 | -7.71 kcal/mol | -7.71 kcal/mol | 3.67 | 3.69 | IC50 [4, 7]: 8.6 ± 1.07 µM; Experimental Binding Free Energy ΔG′exp ([5]; variable substrate CDNB): -7.52 kcal/mol; Experimental Binding Free Energy ΔG′exp ([5]; variable substrate GSH): -8.29 kcal/mol; Type of Inhibition [5, 8]: mixed-type inhibitor; also recorded: Purely mixed; Inhibition Constant Ki΄ ([5]; variable substrate CDNB): 4.97 ± 2.86 μΜ; Type of Inhibition [5, 9]: partially mixed; also recorded: Partial mixed; Inhibition Constant Ki΄ ([5]; variable substrate GSH): 1.45 ± 0.43 μΜ; Effect on CD spectrum / conformation of the enzyme [3]: causes a great change in the CD spectrum
8 | COc1cc(C=C2CCCC(=Cc3ccc(O)c(OC)c3)C2=O)ccc1O [DM100, 2,6-bis(3-methoxy-4-hydroxy-benzylidene)cyclohexanone] | 40 ± 1.84 | – | – | – | – | – | – | –
9 | O=C(/C=C/c1ccc(F)cc1)/C=C/c1ccc(F)cc1 [DM109, (1E,4E)-1,5-bis(4-fluorophenyl)penta-1,4-dien-3-one] | ~95 | 19.5 ± 1.04 | 79.06 ± 2.54 | ΔGexp = −6.66 kcal/mol | ΔGexp = −5.96 kcal/mol | 20.1 | 35.1 | IC50 [4, 7]: 44.6 ± 1.08 µM; IC50 ([4]; MTT, 48 h incubation): 46.1 ± 3.68 µM; Type of Inhibition [5, 8]: Purely non-competitive; Type of Inhibition [5, 9]: Purely non-competitive
10 | O=C(/C=C/c1ccc(O)c(O)c1)/C=C/c1ccc(O)c(O)c1 [DM148, (1E,4E)-1,5-bis(3,4-dihydroxyphenyl)penta-1,4-dien-3-one] | 54.8 ± 0.52 | – | – | – | – | – | – | –
11 | O=C1C(=Cc2ccc(O)c(O)c2)CCCC1=Cc1ccc(O)c(O)c1 [DM151, 2,6-bis(3,4-dihydroxybenzylidene)cyclohexanone] | – | 11.2 ± 1.03 | 88.18 ± 3.65 | ΔGexp = −7.12 kcal/mol | ΔGexp = −7.43 kcal/mol | 9.55 | 5.79 | IC50 [4, 7]: 46.1 ± 3.68 µM; IC50 ([4]; MTT, 48 h incubation): 44.6 ± 1.08 µM; Enzyme Inhibition (%) [6]: did not show any inhibition at all; also recorded: No inhibition was observed; Type of Inhibition [5, 8]: Purely non-competitive; Type of Inhibition [5, 9]: Purely non-competitive
12 | COc1cc(/C=C/C(O)=C/C(=O)/C=C/c2ccc(O)cc2)ccc1O [DMC, Demethoxycurcumin] | – | 37.7 ± 1.02 | 94.56 ± 0.25 | -7.66 kcal/mol | -5.91 kcal/mol | 3.99 | 68 | IC50 ([4]; Homo sapiens, DU-145, 48 h): 48.5 ± 1.09 µM; Experimental Binding Free Energy ΔG′exp ([5]; variable substrate CDNB): -7.98 kcal/mol; Experimental Binding Free Energy ΔG′exp ([5]; variable substrate GSH): -6.07 kcal/mol; Type of Inhibition ([5]; variable substrate CDNB, 2.5 mM GSH, listed as Curcumin II): Partially mixed; Inhibition Constant Ki΄ ([5]; variable substrate CDNB): 2.36 ± 1.37 μΜ; Type of Inhibition ([5]; variable substrate GSH, 1 mM CDNB, listed as Curcumin II): Partially mixed; Inhibition Constant Ki΄ ([5]; variable substrate GSH): 52.83 ± 12.25 μΜ
